# Biological target: Cannabinoid receptor 2 (Homo sapiens, UniProt P34972)
# Test: cAMP Assay: CHO cells expressing human CB1 or CB2 receptors are seeded 17-24 hours prior to the experiment 50.000 cells per well in a black 96 well plate with flat clear bottom (Corning Costar #3904) in DMEM (Invitrogen No. 31331), 1×HT supplement, with 10% fetal calf serum and incubated at 5% CO2 and 37° C. in a humidified incubator. The growth medium was exchanged with Krebs Ringer Bicarbonate buffer with 1 mM IBMX and incubated at 30° C. for 30 min. Compounds were added to a final assay volume of 100 μl and incubated for 30 min at 30° C. Using the cAMP-Nano-TRF detection kit the assay (Roche Diagnostics) was stopped by the addition of 50 μl lysis reagent (Tris, NaCl, 1.5% Triton X100, 2.5% NP40, 10% NaN3) and 50 μl detection solutions (20 μM mAb Alexa700-cAMP 1:1, and 48 μM Ruthenium-2-AHA-cAMP) and shaken for 2 h at room temperature. The time-resolved energy transfer is measured by a TRF reader (Evotec Technologies GmbH), equipped with a ND:YAG laser as excitation source. The plate is measured twice with the excitation at 355 nm and at the emission with a delay of 100 ns and a gate of 100 ns, total exposure time 10 s at 730 (bandwidth 30 nm) or 645 nm (bandwidth 75 nm), respectively. […]
# Chain of Cannabinoid receptor 2 (P34972 whole entry): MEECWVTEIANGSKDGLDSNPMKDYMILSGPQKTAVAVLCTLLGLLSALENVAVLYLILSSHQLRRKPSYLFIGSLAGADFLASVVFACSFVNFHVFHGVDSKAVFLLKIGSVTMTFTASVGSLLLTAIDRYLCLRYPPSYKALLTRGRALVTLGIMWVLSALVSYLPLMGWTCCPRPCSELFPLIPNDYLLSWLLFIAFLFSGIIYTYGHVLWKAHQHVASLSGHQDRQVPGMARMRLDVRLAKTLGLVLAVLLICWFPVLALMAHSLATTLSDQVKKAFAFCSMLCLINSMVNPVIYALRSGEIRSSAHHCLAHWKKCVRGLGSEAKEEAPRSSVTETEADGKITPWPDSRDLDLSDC
structure (smiles),measurement,value
CC(=O)N[C@H]1CCN(c2nc(O[C@@H](C)C(F)(F)F)nc3c2nnn3Cc2ccccc2C(F)(F)F)C1,EC50,78.9 nM

# Reference: ChEMBL document CHEMBL5725892, “Triazolo[4,5-D]pyrimidine derivatives” (2017)
